Measured values reported in US20090137572A1, “2-substituted-4-heteroaryl-pyrimidines useful for the treatment of proliferative disorders” (priority 2004, published 2009).

Experiments:
Type in all cases: biochemical
[1] = target: CDK1-cyclin B (Homo sapiens, UniProt P06493); experiment: Kinase assay (radioactive phosphate incorporation), CDK1-cyclin B; details: read-out: Kinase Inhibition pIC50 CDK1-cyclin B (converted)
In short: (§1)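 Recombinant active enzyme (2-4 μg) with suitable polypeptide substrate in 25 mM β-glycerophosphate, 20 mM MOPS, 5 mM EGTA, 1 mM DTT, 1 mM […], pH 7.4. Started with 15 mM MgCl2/100 μM ATP plus [γ-32P]-ATP, incubated at 30° C; 32P incorporation captured on filter plates and counted by scintillation.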

[2] = target: CDK2-cyclin A (Homo sapiens, UniProt P24941); experiment: Kinase assay (radioactive phosphate incorporation), CDK2-cyclin A; details: read-out: Kinase Inhibition pIC50 CDK2-cyclin A (converted)
Procedure: Kinase assays. The compounds of the invention above were investigated for their ability to inhibit the enzymatic activity of various protein kinases (Table 2). This was achieved by measurement of incorporation of radioactive phosphate from ATP into appropriate polypeptide substrates. Recombinant protein kinases and kinase complexes were produced or obtained commercially. Assays were performed using 96-well plates and appropriate assay buffers (typically 25 mM β-glycerophosphate, 20 mM MOPS, 5 mM EGTA, 1 mM DTT, 1 mM […], pH 7.4), into which were added 2-4 μg of active enzyme with appropriate substrates. The reactions were initiated by addition of Mg/ATP mix (15 mM MgCl2+100 μM ATP with 30-50 kBq per well of [γ-^32P]-ATP) and mixtures incubated as required at 30° C. Reactions were stopped on ice, followed by filtration through p81 filterplates or GF/C filterplates (Whatman Polyfiltronics, Kent, UK). After washing 3 times with 75 mM aq orthophosphoric acid, plates were dried, scintillant added and incorporated radioactivity measured in a scintillation counter (TopCount, Packard Instruments, Pangbourne, Berks, UK). Compounds for kinase assay were made up as 10 mM stocks in DMSO and diluted into 10% DMSO in assay buffer.

[3] = target: CDK2-cycline E (Homo sapiens, UniProt P24941); experiment: Kinase assay (radioactive phosphate incorporation), CDK2-cyclin E; details: read-out: Kinase Inhibition pIC50 CDK2-cycline E (converted)
In short: as §1

[4] = target: CDK4-cyclin D1 (Homo sapiens, UniProt P11802); experiment: Kinase assay (radioactive phosphate incorporation), CDK4-cyclin D1; details: read-out: Kinase Inhibition pIC50 CDK4-cyclin D1 (converted)
CDK4-cyclin D1, sequence (P11802 whole entry): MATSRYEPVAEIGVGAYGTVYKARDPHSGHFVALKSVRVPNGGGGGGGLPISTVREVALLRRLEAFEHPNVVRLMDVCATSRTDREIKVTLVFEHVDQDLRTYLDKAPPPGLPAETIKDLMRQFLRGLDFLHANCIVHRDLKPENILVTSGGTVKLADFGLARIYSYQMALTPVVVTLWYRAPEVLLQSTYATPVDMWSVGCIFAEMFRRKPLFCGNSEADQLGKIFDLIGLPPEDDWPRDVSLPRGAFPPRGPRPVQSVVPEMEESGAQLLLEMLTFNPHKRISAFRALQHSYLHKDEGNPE
CDK4-cyclin D1, sequence (P24385 whole entry partner): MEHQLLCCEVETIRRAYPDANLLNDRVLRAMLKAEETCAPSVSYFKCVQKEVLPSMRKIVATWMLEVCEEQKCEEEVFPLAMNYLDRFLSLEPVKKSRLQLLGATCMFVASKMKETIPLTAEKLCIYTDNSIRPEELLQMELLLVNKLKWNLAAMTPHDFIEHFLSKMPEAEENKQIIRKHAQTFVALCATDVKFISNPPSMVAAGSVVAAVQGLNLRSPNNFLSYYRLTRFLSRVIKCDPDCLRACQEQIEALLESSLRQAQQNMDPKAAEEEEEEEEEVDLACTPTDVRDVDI
In short: as §1

[5] = target: CDK7/cyclin H (Homo sapiens, UniProt P50613); experiment: CDK 7 assay (CTD peptide substrate); details: read-out: Kinase Inhibition pIC50 CDK7-cyclin H (converted)
CDK7/cyclin H, sequence (P50613 whole entry): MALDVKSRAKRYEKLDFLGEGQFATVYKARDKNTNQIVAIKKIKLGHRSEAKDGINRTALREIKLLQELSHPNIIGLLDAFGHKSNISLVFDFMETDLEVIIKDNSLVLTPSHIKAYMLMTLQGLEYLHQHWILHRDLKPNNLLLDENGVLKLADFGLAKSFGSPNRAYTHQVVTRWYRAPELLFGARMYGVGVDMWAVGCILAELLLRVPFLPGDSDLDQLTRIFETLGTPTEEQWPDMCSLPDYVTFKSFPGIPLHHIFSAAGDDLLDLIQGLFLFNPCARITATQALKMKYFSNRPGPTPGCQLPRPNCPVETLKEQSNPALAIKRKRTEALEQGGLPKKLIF
CDK7/cyclin H, sequence (P51946 whole entry partner): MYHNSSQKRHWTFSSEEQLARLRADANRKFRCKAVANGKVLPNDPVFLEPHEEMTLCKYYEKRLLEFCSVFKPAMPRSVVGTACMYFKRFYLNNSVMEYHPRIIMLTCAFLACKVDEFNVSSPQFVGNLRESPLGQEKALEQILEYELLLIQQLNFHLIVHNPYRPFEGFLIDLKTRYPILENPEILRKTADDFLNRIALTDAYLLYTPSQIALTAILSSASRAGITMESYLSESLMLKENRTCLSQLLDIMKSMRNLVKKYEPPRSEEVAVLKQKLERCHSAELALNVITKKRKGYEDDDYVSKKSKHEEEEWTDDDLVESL
In short: (§2)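 Recombinant human kinase/cyclin complex (0.5-2 μg) with biotinylated CTD heptapeptide-repeat substrate and test compound, 45 min at 30° C in MOPS pH 7.2 buffer with 15 mM MgCl2 and 100 μM ATP traced with [γ-32P]ATP. Avidin added, P81 filter capture, phosphoric acid washes, scintillation counting of 32P incorporation.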

[6] = target: CDK9/cyclin T1 (Homo sapiens, UniProt P50750); experiment: CDK 9 assay (CTD peptide substrate); details: read-out: Kinase Inhibition pIC50 CDK9-cyclin T1 (converted)
CDK9/cyclin T1, sequence (P50750 whole entry): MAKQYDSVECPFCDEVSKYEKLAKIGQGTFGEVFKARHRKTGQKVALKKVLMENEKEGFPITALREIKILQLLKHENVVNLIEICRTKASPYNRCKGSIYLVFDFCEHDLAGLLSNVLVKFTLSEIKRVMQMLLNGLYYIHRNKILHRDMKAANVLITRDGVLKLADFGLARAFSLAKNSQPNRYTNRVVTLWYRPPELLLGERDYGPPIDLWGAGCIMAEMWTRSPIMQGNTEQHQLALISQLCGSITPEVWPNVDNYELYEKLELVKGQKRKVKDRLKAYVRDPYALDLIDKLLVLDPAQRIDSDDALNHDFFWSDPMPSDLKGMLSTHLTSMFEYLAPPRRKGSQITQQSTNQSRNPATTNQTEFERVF
CDK9/cyclin T1, sequence (O60563 whole entry partner): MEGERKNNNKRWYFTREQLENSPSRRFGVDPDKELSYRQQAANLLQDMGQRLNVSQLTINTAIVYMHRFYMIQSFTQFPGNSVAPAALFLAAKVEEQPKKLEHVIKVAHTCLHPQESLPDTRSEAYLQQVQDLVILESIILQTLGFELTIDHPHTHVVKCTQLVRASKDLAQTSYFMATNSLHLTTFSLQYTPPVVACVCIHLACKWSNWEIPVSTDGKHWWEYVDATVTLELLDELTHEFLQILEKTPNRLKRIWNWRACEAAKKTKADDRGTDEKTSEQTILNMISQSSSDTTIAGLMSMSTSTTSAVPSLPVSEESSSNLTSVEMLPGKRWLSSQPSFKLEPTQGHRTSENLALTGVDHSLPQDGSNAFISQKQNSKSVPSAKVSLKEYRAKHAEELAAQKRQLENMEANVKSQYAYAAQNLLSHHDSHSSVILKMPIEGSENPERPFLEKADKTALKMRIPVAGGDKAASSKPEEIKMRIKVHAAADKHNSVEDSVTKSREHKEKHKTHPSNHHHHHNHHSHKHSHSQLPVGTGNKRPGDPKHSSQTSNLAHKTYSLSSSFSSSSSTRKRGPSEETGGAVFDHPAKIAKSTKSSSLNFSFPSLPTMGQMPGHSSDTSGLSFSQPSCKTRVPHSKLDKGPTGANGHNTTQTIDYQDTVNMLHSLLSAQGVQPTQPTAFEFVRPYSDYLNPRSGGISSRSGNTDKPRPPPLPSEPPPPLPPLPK
In short: as §2

[7] = target: GSK3b (Homo sapiens, UniProt P49841); experiment: Kinase assay (radioactive phosphate incorporation), GSK-3b; details: read-out: Kinase Inhibition pIC50 GSK-3b (converted)
GSK3b, sequence (P49841 whole entry, species assumed): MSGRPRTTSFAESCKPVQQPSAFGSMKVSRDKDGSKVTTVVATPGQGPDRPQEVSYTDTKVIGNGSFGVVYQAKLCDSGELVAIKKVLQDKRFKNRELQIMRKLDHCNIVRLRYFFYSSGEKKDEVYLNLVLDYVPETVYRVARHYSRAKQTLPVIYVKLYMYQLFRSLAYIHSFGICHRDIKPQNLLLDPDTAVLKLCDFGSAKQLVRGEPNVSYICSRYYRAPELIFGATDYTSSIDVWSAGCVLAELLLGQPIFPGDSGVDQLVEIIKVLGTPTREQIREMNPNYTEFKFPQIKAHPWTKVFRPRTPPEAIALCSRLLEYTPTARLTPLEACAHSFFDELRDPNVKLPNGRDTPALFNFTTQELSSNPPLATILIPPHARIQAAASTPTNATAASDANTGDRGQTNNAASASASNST
In short: as §1

[8] = target: T1, Aurora A kinase (Homo sapiens, UniProt O14965); experiment: Aurora-A (human) kinase assay (Kemptide substrate); details: pIC50 is -log(IC50, M); 15 μM ATP; read-out: Kinase Inhibition pIC50 Aurora A kinase (converted)
T1 construct: purchased
T1 sequence (O14965 1-403): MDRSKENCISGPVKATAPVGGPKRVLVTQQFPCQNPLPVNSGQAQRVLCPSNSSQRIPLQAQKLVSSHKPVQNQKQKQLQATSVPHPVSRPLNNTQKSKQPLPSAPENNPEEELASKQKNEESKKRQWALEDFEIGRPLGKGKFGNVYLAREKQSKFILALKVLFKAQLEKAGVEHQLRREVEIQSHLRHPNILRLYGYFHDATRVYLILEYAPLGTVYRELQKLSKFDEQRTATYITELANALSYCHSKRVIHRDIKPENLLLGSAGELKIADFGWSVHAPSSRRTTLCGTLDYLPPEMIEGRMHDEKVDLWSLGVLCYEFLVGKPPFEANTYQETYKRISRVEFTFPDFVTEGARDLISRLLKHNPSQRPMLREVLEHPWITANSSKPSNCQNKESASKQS
In short: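 Radiometric filter-binding assay: commercial aurora-A kinase (5-10 ng) with 200 μM Kemptide in MOPS/EDTA pH 7.0, started with 10 mM Mg acetate and 15 μM ATP plus [γ-33P]-ATP. Incubated 40 min at room temperature, stopped with phosphoric acid, incorporated 33P counted by scintillation.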

[9] = target: T2, Flt3 (FMS-like tyrosine kinase-3) (Homo sapiens, UniProt P36888); experiment: Kinase assay (radioactive phosphate incorporation), Flt3; details: pIC50 is -log(IC50, M), read-out: Kinase Inhibition pIC50 Flt3 (converted)
T2 sequence (P36888 27-993): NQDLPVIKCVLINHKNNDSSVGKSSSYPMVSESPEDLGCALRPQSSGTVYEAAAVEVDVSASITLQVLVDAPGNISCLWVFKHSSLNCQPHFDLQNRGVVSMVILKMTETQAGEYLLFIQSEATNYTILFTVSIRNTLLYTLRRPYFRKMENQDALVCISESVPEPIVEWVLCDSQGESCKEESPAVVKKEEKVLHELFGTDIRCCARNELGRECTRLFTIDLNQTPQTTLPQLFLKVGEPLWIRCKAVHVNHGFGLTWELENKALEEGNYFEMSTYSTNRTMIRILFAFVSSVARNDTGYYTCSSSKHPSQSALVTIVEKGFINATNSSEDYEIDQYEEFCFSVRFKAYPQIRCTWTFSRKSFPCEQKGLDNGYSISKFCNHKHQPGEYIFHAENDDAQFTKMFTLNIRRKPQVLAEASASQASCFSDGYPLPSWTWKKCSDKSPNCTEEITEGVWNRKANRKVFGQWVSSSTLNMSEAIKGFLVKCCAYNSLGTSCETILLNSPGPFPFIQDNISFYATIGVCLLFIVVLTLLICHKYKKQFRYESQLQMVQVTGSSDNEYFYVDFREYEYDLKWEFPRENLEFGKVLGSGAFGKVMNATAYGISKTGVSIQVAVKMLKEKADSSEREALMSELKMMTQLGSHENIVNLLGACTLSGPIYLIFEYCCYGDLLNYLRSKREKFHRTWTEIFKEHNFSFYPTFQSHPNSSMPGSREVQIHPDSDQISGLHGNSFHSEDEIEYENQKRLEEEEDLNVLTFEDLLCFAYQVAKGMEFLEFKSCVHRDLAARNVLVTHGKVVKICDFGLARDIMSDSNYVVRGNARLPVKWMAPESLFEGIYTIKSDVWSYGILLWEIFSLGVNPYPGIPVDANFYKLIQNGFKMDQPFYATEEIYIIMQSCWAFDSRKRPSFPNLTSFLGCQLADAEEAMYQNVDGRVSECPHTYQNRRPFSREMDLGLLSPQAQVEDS
In short: as §1

CDK1-cyclin B, sequence (P06493 whole entry): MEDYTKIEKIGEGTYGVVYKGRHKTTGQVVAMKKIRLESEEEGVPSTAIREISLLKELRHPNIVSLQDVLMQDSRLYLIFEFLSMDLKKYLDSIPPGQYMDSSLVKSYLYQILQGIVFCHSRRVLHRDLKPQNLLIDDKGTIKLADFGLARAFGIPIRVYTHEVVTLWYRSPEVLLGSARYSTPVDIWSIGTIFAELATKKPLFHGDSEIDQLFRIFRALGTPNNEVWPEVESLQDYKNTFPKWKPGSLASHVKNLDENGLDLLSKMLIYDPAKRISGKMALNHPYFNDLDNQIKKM
CDK1-cyclin B, sequence (P14635 whole entry partner): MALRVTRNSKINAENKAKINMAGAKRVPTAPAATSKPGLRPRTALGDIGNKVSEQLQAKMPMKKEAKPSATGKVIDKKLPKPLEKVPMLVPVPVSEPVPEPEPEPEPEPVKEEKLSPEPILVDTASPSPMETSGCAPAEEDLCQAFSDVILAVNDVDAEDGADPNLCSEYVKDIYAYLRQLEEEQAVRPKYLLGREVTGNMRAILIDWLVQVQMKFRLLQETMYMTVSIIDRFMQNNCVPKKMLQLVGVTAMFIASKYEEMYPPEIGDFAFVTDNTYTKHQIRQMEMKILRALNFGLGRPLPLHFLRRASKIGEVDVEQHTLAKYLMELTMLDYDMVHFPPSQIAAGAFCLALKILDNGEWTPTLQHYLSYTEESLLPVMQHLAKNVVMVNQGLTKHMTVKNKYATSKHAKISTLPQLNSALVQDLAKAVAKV

SMILES	IC50 [1] [nM]	IC50 [2] [nM]	IC50 [3] [nM]	IC50 [4] [nM]	IC50 [5] [nM]	IC50 [6] [nM]	IC50 [7] [nM]	IC50 [8] [nM]	IC50 [9] [nM]
Cc1nc(C)c(-c2ccnc(Nc3cccc(CNC(=O)c4ccccc4)c3)n2)s1 [Compound 9, N-{3-[4-(2,4-Dimethyl-thiazol-5-yl)-pyrimidin-2-ylamino]-benzyl}-benzamide]	631	1000	158	251	5010	501	2000	158	
Cc1nc(C)c(-c2ccnc(Nc3cccc(CNS(=O)(=O)C(F)(F)F)c3)n2)s1 [Compound 11, N-{3-[4-(2,4-Dimethyl-thiazol-5-yl)-pyrimidin-2-ylamino]-benzyl}-C,C,C-trifluoro-methanesulfonamide]	1580	1580	158	1260	631	1260	1580	200	
CNc1nc(C)c(-c2ccnc(Nc3ccc(CNC(C)=O)cc3)n2)s1 [Compound 14, N-{4-[4-(4-Methyl-2-methylamino-thiazol-5-yl)-pyrimidin-2-ylamino]-benzyl}-acetamide]	398	631	39.8	126	794	79.4	631		79.4
CCNc1nc(C)c(-c2ccnc(Nc3cccc(S(N)(=O)=O)c3)n2)s1 [Compound 18, 3-[4-(2-Ethylamino-4-methyl-thiazol-5-yl)-pyrimidin-2-ylamino]-benzenesulfonamide]	2000	1580	794	251	126	15.8	2510		158
CNS(=O)(=O)c1cccc(Nc2nccc(-c3sc(C)nc3C)n2)c1 [Compound 33, 3-[4-(2,4-Dimethyl-thiazol-5-yl)-pyrimidin-2-ylamino]-N-methyl-benzenesulfonamide]	501	200	50.1	200	126	10	200	1260	
CNc1nc(C)c(-c2ccnc(Nc3cccc(S(=O)(=O)NC(C)=O)c3)n2)s1 [Compound 63, N-Acetyl-3-[4-(4-methyl-2-methylamino-thiazol-5-yl)-pyrimidin-2-ylamino]-benzenesulfonamide]	6310	3160	631	501	2510	398	1580	1580	
CC(=O)NS(=O)(=O)c1cccc(Nc2nccc(-c3sc(N)nc3C)n2)c1 [Compound 64, N-Acetyl-3-[4-(2-amino-4-methyl-thiazol-5-yl)-pyrimidin-2-ylamino]-benzenesulfonamide]	6310	2510	398	398	1580	251	1580	200	
Cc1nc(C)c(-c2ccnc(Nc3cccc(S(=O)(=O)NCCO)c3)n2)s1 [Compound 78, 3-[4-(2,4-Dimethyl-thiazol-5-yl)-pyrimidin-2-ylamino]-N-(2-hydroxy-ethyl)-benzenesulfonamide]	2000	2000	316	501	1260	158	1000	631	

The remaining lines, values ahead:

IC50 [1] [nM]	IC50 [2] [nM]	IC50 [3] [nM]	IC50 [4] [nM]	IC50 [5] [nM]	IC50 [6] [nM]	IC50 [7] [nM]	IC50 [8] [nM]	IC50 [9] [nM]	SMILES
50.1	12.6	15.8	501	631	200	5010	126		CCNc1nc(C)c(-c2ccnc(Nc3ccc(S(=O)(=O)NCCOC)cc3)n2)s1 [Compound 39, 4-[4-(2-Ethylamino-4-methyl-thiazol-5-yl)-pyrimidin-2-ylamino]-N-(2-methoxy-ethyl)-benzenesulfonamide]
50.1	20	15.8	12.6	200		316	251	200	CCNc1nc(C)c(-c2ccnc(Nc3ccc(S(=O)(=O)NCCO)cc3)n2)s1 [Compound 65, 4-[4-(2-Ethylamino-4-methyl-thiazol-5-yl)-pyrimidin-2-ylamino]-N-(2-hydroxy-ethyl)-benzenesulfonamide]
50.1	15.8	6.31	501	3980		1260	316	316	CNc1nc(C)c(-c2ccnc(Nc3ccc(S(=O)(=O)NCCO)cc3)n2)s1 [Compound 67, N-(2-Hydroxy-ethyl)-4-[4-(4-methyl-2-methylamino-thiazol-5-yl)-pyrimidin-2-ylamino]-benzenesulfonamide]
10	20	10	1000	2000	398	1580	79.4		Cc1nc(C)c(-c2ccnc(Nc3ccc(S(=O)(=O)NCCO)cc3)n2)s1 [Compound 69, 4-[4-(2,4-Dimethyl-thiazol-5-yl)-pyrimidin-2-ylamino]-N-(2-hydroxy-ethyl)-benzenesulfonamide]
